Assay results taken from patent publication US20140350029A1 (DAINIPPON SUMITOMO PHARMA CO., LTD., priority 2011, published 2014).

How the values were obtained:
Format in all cases: in vivo, human
[1] = Short-term (6-week) and long-term (6-month, 12-month) metabolic safety study
Experimental: The mean change in weight and BMI was assessed at the LOCF endpoint for the short-term study. […] FIG. 6 summarizes the mean change in weight and BMI in observed cases after 6 months and 12 months of treatment
The median change in total cholesterol and triglycerides, and glucose and HbA1c, was also assessed for both the short-term and long-term studies.

[2] = Lurasidone monotherapy for bipolar I depression, 6-week study, safety and tolerability
[3] = test system: patients with bipolar I depression; assay: Lurasidone adjunctive to lithium or divalproex for bipolar I depression, 6-week study, efficacy; conditions: lurasidone 20-120 mg/day adjunctive to lithium or divalproex, 6 weeks
Experimental: Changes from DB baseline (DB BL) in MADRS total score and secondary efficacy outcomes were analyzed using either mixed model for repeated measures (MMRM) or analysis of covariance, last observation carried forward (ANCOVA-LOCF), or logistic regression.
Therapeutic blood levels of Li or VPA had to be maintained for ≧28 days prior to randomization.
The total duration of treatment was 6 weeks.
A mixed model for repeated measures (MMRM) was utilized using the ITT population. The results are depicted in FIG. 16. The MMRM model included treatment, visit, pooled center, stratification variable (lithium or divalproex), baseline MADRS total score, and the treatment-by-visit interactions. An unstructured covariance matrix was used for the within-subject correlation. Missing observations were not imputed for this analysis.
Efficacy was also evaluated by measuring the change from baseline in CGI-BP-S score (depression) and the change from baseline in SDS total score. The results are depicted in FIGS. 17 and 18. CGI-BP-S was analyzed using the MMRM method described above, and SDS was analyzed using an analysis of covariance (ANCOVA) model with treatment, visit, pooled center, stratification variable (lithium or divalproex) and the baseline value of SDS. The ITT population was used for the analyses.

[4] = Lurasidone 20-60 mg, listed as LUR
[5] = Lurasidone 80-120 mg, listed as LUR

With `O=C1[C@@H]2[C@H]3CC[C@H](C3)[C@@H]2C(=O)N1C[C@@H]1CCCC[C@H]1CN1CCN(c2nsc3ccccc23)CC1` [Lurasidone] the “mean change in weight and BMI as compared to other treatments” value ([1]; short-term (6-week) study, LOCF endpoint, patients with schizophrenia) was “minimal increases”, the “disturbances in lipids or glycemic control” value ([1]; short-term and long-term (6 and 12 months) studies) was “not associated with disturbances in lipids or glycemic control” and the “Adverse Events: Akathisia, incidence” value ([2]; Lurasidone 20-60 mg) was 13 (7.9%). For the same compound, the “Adverse Events: Dizziness, incidence” value ([2]; Lurasidone 20-60 mg) was 4 (2.4%), the “Adverse Events: Headache, incidence” value ([2]; Lurasidone 20-60 mg) was 23 (14.0%) and the “Adverse Events: Insomnia, incidence” value ([2]; Lurasidone 20-60 mg) was 8 (4.9%). The “Adverse Events: Nausea, incidence” value ([2]; Lurasidone 20-60 mg) was 17 (10.4%), the “Adverse Events: Sedation, incidence” value ([2]; Lurasidone 20-60 mg) was 5 (3.0%) and the “Adverse Events: Somnolence, incidence” value ([2]; Lurasidone 20-60 mg) was 7 (4.3%). The “Cholesterol (mg/dL) median change (at LOCF endpoint)” value ([2]; Lurasidone 20-60 mg) was 0.0 mg/dL, the “Glucose (mg/dL) median change (at LOCF endpoint)” value ([2]; Lurasidone 20-60 mg) was -1.0 mg/dL and the “Triglycerides (mg/dL) median change (at LOCF endpoint)” value ([2]; Lurasidone 20-60 mg) was “+3.0 mg/dL”. For the same compound, the “Weight (kg) mean change (at LOCF endpoint)” value ([2]; Lurasidone 20-60 mg) was “+0.56 kg”, the “Adverse Events: Akathisia, incidence” value [2, 4] was 7.9% and the “Adverse Events: Headache, incidence” value [2, 4] was 14.0%. For the same compound, the “Adverse Events: Nausea, incidence” value [2, 4] was 10.4%, the “Adverse Events: Akathisia, incidence” value ([2]; Lurasidone 80-120 mg) was 18 (10.8%) and the “Adverse Events: Dizziness, incidence” value ([2]; Lurasidone 80-120 mg) was 10 (6.0%). For the same compound, the “Adverse Events: Headache, incidence” value ([2]; Lurasidone 80-120 mg) was 15 (9.0%), the “Adverse Events: Insomnia, incidence” value ([2]; Lurasidone 80-120 mg) was 11 (6.6%) and the Adverse Events: Nausea, incidence ([2]; Lurasidone 80-120 mg) was 17.4%. For the same compound, the “Adverse Events: Sedation, incidence” value ([2]; Lurasidone 80-120 mg) was 12 (7.2%), the “Adverse Events: Somnolence, incidence” value ([2]; Lurasidone 80-120 mg) was 11 (6.6%) and the “Cholesterol (mg/dL) median change (at LOCF endpoint)” value ([2]; Lurasidone 80-120 mg) was -3.0 mg/dL. The “Glucose (mg/dL) median change (at LOCF endpoint)” value ([2]; Lurasidone 80-120 mg) was 0.0 mg/dL, the “Triglycerides (mg/dL) median change (at LOCF endpoint)” value ([2]; Lurasidone 80-120 mg) was -2.0 mg/dL and the “Weight (kg) mean change (at LOCF endpoint)” value ([2]; Lurasidone 80-120 mg) was “+0.02 kg”. The “Adverse Events: Akathisia, incidence” value [2, 5] was 10.8%, the “Adverse Events: Headache, incidence” value [2, 5] was 9.0% and the “Adverse Events: Nausea, incidence” value [2, 5] was 17.4%. For the same compound, the “discontinuation rates due to adverse events” value ([2]; lurasidone 20 to 60 mg/day) was 7%, the “discontinuation rates due to adverse events” value ([2]; lurasidone 80 to 120 mg/day) was 6% and the “changes in weight, lipids and measures of glycemic control” value ([2]; monotherapy, 20-60 and 80-120 mg/day, 6 weeks) was “Minimal changes”. The “depressive symptoms compared to placebo” value [3] was “significantly reduced depressive symptoms” and the “self-rated measures of social, family, and occupational function as well as quality of life” value [3] was “significantly improved”.
